Where only a bound is given, the exact number is not on record here.

Sequence of Human complement C1s enzyme (P09871 438-688 limits assumed): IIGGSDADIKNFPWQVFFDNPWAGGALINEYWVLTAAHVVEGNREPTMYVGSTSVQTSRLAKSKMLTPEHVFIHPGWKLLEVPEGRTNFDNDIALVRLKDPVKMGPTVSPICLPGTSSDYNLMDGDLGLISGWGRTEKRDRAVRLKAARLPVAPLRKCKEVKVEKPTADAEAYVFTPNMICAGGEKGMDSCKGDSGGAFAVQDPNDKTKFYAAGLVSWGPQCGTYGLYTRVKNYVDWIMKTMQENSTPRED
Sequence of Human complement C1s enzyme (P09871 16-437 partner limits assumed): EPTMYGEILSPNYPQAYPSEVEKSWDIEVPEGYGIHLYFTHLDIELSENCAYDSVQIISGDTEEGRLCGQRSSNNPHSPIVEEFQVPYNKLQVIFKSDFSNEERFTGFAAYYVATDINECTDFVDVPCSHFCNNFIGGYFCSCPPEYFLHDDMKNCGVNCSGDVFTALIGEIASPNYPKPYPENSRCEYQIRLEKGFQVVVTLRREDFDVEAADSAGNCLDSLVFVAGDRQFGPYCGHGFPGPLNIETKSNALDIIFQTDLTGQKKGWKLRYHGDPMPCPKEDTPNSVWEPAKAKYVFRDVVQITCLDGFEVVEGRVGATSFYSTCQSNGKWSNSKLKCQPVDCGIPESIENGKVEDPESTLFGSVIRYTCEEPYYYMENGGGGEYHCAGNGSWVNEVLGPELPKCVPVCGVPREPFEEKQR

The assay deals with Human complement C1s enzyme (Homo sapiens (Human), UniProt P09871). In words: Human C1s enzyme assay. The format is biochemical. The settings on record: Human C1s enzyme assay of Example 3; read-out: IC50 (Stars). The method in brief:
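IC50 derived by nonlinear regression of rate versus concentration, with rate taken from A405 kinetics (30 s intervals, 30 min) after adding 100 μM each Z-L-Lys-SBzl and DTNB. C1s from human serum, 1.16 nM, exposed to compound for 5 min at RT beforehand; buffer 50 mM Tris, 1 M NaCl, pH 7.5.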
With `N=C(N)c1csc(CNC(=O)[C@@H]2CC3(CN2C(=O)CNC(=O)c2cccc(-c4ccccc4)n2)OCCO3)c1` [Compound 146, (S)—N-((4-carbamimidoylthiophen-2-yl)methyl)-7-((6-phenylpicolinoyl)glycyl)-1,4-dioxa-7-azaspiro[4.4]nonane-8-carboxamide], the IC50 (commonly the point on the concentration scale where inhibition reaches its midpoint) was less than 100 nM.

Take `N=C(N)c1cc(CNC(=O)[C@@H]2CC3(CN2C(=O)CNC(=O)c2ccc(-c4ccccc4)cc2)OCCO3)cs1` [Compound 147, (S)-7-(([1,1′-biphenyl]-4-carbonyl)glycyl)-N-((5-carbamimidoylthiophen-3-yl)methyl)-1,4-dioxa-7-azaspiro[4.4]nonane-8-carboxamide]: the IC50 is less than 100 nM. As for `COC(=O)/N=C(/N)c1csc([C@@H](C)NC(=O)[C@@H]2CC3(CN2C(=O)CNC(=O)c2ccc4c(c2)-c2ccccc2C4(F)F)OCCO3)c1` [Compound 148, methyl ((E)-amino(5-((R)-1-((S)-7-((9,9-difluoro-9H-fluorene-3-carbonyl)glycyl)-1,4-dioxa-7-azaspiro[4.4]nonane-8-carboxamido)ethyl)thiophen-3-yl)methylene)carbamate], the figure is less than 100 nM; as for `C[C@@H](NC(=O)[C@@H]1CC2(CN1C(=O)CNC(=O)c1ccc3c(c1)-c1ccccc1C3(F)F)OCCO2)c1cc(/C(N)=N\C(=O)Oc2ccccc2)cs1` [Compound 149, phenyl ((E)-amino(5-((R)-1-((S)-7-((9,9-difluoro-9H-fluorene-3-carbonyl)glycyl)-1,4-dioxa-7-azaspiro[4.4]nonane-8-carboxamido)ethyl)thiophen-3-yl)methylene)carbamate], less than 100 nM; as for `C[C@@H](NC(=O)[C@@H]1CC2(CN1C(=O)CNC(=O)c1ccc3c(c1)-c1ccccc1C3(F)F)OCCO2)c1cc(-c2cn[nH]n2)cs1` [Compound 152, (S)—N—((R)-1-(4-(2H-1,2,3-triazol-4-yl)thiophen-2-yl)ethyl)-7-((9,9-difluoro-9H-fluorene-3-carbonyl)glycyl)-1,4-dioxa-7-azaspiro[4.4]nonane-8-carboxamide], more than 1000 nM. As for `C[C@@H](NC(=O)[C@@H]1C[C@](F)(CF)CN1C(=O)CNC(=O)c1ccc2c(c1)-c1ccccc1C2(C)C)c1cc(C(=N)N)cs1` [Compound 153, (2S,4R)—N—((R)-1-(4-carbamimidoylthiophen-2-yl)ethyl)-1-((9,9-dimethyl-9H-fluorene-3-carbonyl)glycyl)-4-fluoro-4-(fluoromethyl)pyrrolidine-2-carboxamide], the figure is less than 100 nM; as for `C[C@@H](NC(=O)[C@@H]1C[C@](F)(CF)CN1C(=O)CNC(=O)c1ccc(C(F)(F)c2ccccc2)cc1)c1cc(C(=N)N)cs1` [Compound 154, (2S,4R)—N—((R)-1-(4-carbamimidoylthiophen-2-yl)ethyl)-1-((4-(difluoro(phenyl)methyl)benzoyl)glycyl)-4-fluoro-4-(fluoromethyl)pyrrolidine-2-carboxamide], less than 100 nM; as for `N=C(N)c1cc(CNC(=O)[C@@H]2CC3(CN2C(=O)CNC(=O)c2ccc(-c4ccc(F)cc4F)cc2)OCCO3)cs1` [Compound 155, (S)-N-((5-carbamimidoylthiophen-3-yl)methyl)-7-((2′,4′-difluoro-[1,1′-biphenyl]-4-carbonyl)glycyl)-1,4-dioxa-7-azaspiro[4.4]nonane-8-carboxamide], less than 100 nM. As for `CO[C@@H]1C[C@@H](C(=O)NCc2cc(-c3c[nH]c([N+](=O)[O-])n3)cs2)N(C(=O)CNC(=O)c2ccc(Oc3ccc(F)cc3)cc2)C1` [Compound 156, (2S,4R)-1-((4-(4-fluorophenoxy)benzoyl)glycyl)-4-methoxy-N-((4-(2-nitro-1H-imidazol-4-yl)thiophen-2-yl)methyl)pyrrolidine-2-carboxamide], the IC50 was more than 1000 nM.

As for `O=C(NCC(=O)N1CC2(C[C@H]1C(=O)NCc1cc(-c3ncc[nH]3)cs1)OCCO2)c1ccc(Oc2ccc(F)cc2)cc1` [Compound 157, (S)-N-((4-(1H-imidazol-2-yl)thiophen-2-yl)methyl)-7-((4-(4-fluorophenoxy)benzoyl)glycyl)-1,4-dioxa-7-azaspiro[4.4]nonane-8-carboxamide], the IC50 was more than 1000 nM. For the molecule `C[C@@H](NC(=O)[C@@H]1CC2(CN1C(=O)CNC(=O)c1ccc(-c3ccc(F)cc3F)cc1)OCCO2)c1cc(C(=N)N)cs1` [Compound 158, (S)—N—((R)-1-(4-carbamimidoylthiophen-2-yl)ethyl)-7-((2′,4′-difluoro-[1,1′-biphenyl]-4-carbonyl)glycyl)-1,4-dioxa-7-azaspiro[4.4]nonane-8-carboxamide], the IC50 is less than 100 nM.

For the molecule `C[C@@H](NC(=O)[C@@H]1C[C@@H](OC(F)(F)F)CN1C(=O)CNC(=O)c1ccc2c(c1)-c1ccccc1C2(F)F)c1cc(C(=N)N)cs1` [Compound 159, (2S,4R)—N—((R)-1-(4-carbamimidoylthiophen-2-yl)ethyl)-1-((9,9-difluoro-9H-fluorene-3-carbonyl)glycyl)-4-(trifluoromethoxy)pyrrolidine-2-carboxamide], the IC50 was less than 100 nM. On to `C[C@@H](NC(=O)[C@@H]1CC2(CN1C(=O)CNC(=O)c1ccc3c(c1)-c1ccccc1C3O)OCCO2)c1cc(C(=N)N)cs1` (stereo partly drawn) [Compound 162, (8S)—N—((R)-1-(4-carbamimidoylthiophen-2-yl)ethyl)-7-((9-hydroxy-9H-fluorene-3-carbonyl)glycyl)-1,4-dioxa-7-azaspiro[4.4]nonane-8-carboxamide], for which the IC50 is less than 100 nM. Consider `C[C@@H](NC(=O)[C@@H]1CC2(CN1C(=O)CNC(=O)c1ccc(-c3ccc(F)cc3)cn1)OCCO2)c1cc(C(=N)N)cs1` [Compound 163, (S)—N—((R)-1-(4-carbamimidoylthiophen-2-yl)ethyl)-7-((5-(4-fluorophenyl)picolinoyl)glycyl)-1,4-dioxa-7-azaspiro[4.4]nonane-8-carboxamide], for which the IC50 is less than 100 nM. Take `C[C@@H](NC(=O)[C@@H]1CC2(CN1C(=O)CNC(=O)c1ccc(-c3ccc(F)cn3)cc1)OCCO2)c1cc(C(=N)N)cs1` [Compound 164, (S)—N—((R)-1-(4-carbamimidoylthiophen-2-yl)ethyl)-7-((4-(5-fluoropyridin-2-yl)benzoyl)glycyl)-1,4-dioxa-7-azaspiro[4.4]nonane-8-carboxamide]: the IC50 is less than 100 nM.

As for `N=C(N)c1csc(CNC(=O)[C@@H]2CC3(CN2C(=O)CNC(=O)c2ccc(-c4ccsc4)cc2)OCCO3)c1` [Compound 165, (S)-N-((4-carbamimidoylthiophen-2-yl)methyl)-7-((4-(thiophen-3-yl)benzoyl)glycyl)-1,4-dioxa-7-azaspiro[4.4]nonane-8-carboxamide], the IC50 is less than 100 nM. The result for `C[C@@H](NC(=O)[C@@H]1CC2(CN1C(=O)CNC(=O)c1ccc(-c3cc(F)ccc3F)cc1)OCCO2)c1cc(C(=N)N)cs1` [Compound 166, (S)—N—((R)-1-(4-carbamimidoylthiophen-2-yl)ethyl)-7-((2′,5′-difluoro-[1,1′-biphenyl]-4-carbonyl)glycyl)-1,4-dioxa-7-azaspiro[4.4]nonane-8-carboxamide] reads less than 100 nM. Regarding `C[C@@H](NC(=O)[C@@H]1C[C@@H](S(C)(=O)=O)CN1C(=O)CNC(=O)c1ccc(C(F)(F)c2ccccc2)cc1)c1cc(C(=N)N)cs1` [Compound 168, (2S,4R)—N—((R)-1-(4-carbamimidoylthiophen-2-yl)ethyl)-1-((4-(difluoro(phenyl)methyl)benzoyl)glycyl)-4-(methylsulfonyl)pyrrolidine-2-carboxamide], the IC50 was less than 100 nM. The result for `Cc1ccc(-c2ccc(C(=O)NCC(=O)N3CC4(C[C@H]3C(=O)N[C@H](C)c3cc(C(=N)N)cs3)OCCO4)cc2)c(C)c1` [Compound 169, (S)—N—((R)-1-(4-carbamimidoylthiophen-2-yl)ethyl)-7-((2′,4′-dimethyl-[1,1′-biphenyl]-4-carbonyl)glycyl)-1,4-dioxa-7-azaspiro[4.4]nonane-8-carboxamide] reads less than 100 nM.

Regarding `C[C@@H](NC(=O)[C@@H]1CC2(CN1C(=O)CNC(=O)c1ccc3[nH]c4ccccc4c3c1)OCCO2)c1cc(C(=N)N)cs1` [Compound 170, (S)-7-((9H-carbazole-3-carbonyl)glycyl)-N—((R)-1-(4-carbamimidoylthiophen-2-yl)ethyl)-1,4-dioxa-7-azaspiro[4.4]nonane-8-carboxamide], the IC50 was less than 100 nM.

For the molecule `C[C@@H](NC(=O)[C@@H]1C[C@H](c2nccs2)CN1C(=O)CNC(=O)c1ccc(Oc2ccc(F)cc2)cc1)c1cc(C(=N)N)cs1` [Compound 171, (2S,4S)—N—((R)-1-(4-carbamimidoylthiophen-2-yl)ethyl)-1-((4-(4-fluorophenoxy)benzoyl)glycyl)-4-(thiazol-2-yl)pyrrolidine-2-carboxamide], the IC50 was less than 100 nM. As for `C[C@@H](NC(=O)[C@@H]1C[C@H](c2nccs2)CN1C(=O)CNC(=O)c1ccc2c(c1)-c1ccccc1C2(F)F)c1cc(C(=N)N)cs1` [Compound 172, (2S,4S)—N—((R)-1-(4-carbamimidoylthiophen-2-yl)ethyl)-1-((9,9-difluoro-9H-fluorene-3-carbonyl)glycyl)-4-(thiazol-2-yl)pyrrolidine-2-carboxamide], the figure is less than 100 nM; as for `Cc1cnc(-c2ccc(C(=O)NCC(=O)N3CC4(C[C@H]3C(=O)N[C@H](C)c3cc(C(=N)N)cs3)OCCO4)cc2)c(C)c1` [Compound 173, (S)—N—((R)-1-(4-carbamimidoylthiophen-2-yl)ethyl)-7-((4-(3,5-dimethylpyridin-2-yl)benzoyl)glycyl)-1,4-dioxa-7-azaspiro[4.4]nonane-8-carboxamide], less than 100 nM. As for `C[C@@H](NC(=O)[C@@H]1CC2(CN1C(=O)CNC(=O)c1ccc(-c3ccc(Cl)cc3F)cc1)OCCO2)c1cc(C(=N)N)cs1` [Compound 174, (S)—N—((R)-1-(4-carbamimidoylthiophen-2-yl)ethyl)-7-((4′-chloro-2′-fluoro-[1,1′-biphenyl]-4-carbonyl)glycyl)-1,4-dioxa-7-azaspiro[4.4]nonane-8-carboxamide], the figure is less than 100 nM.

Source of the values: patent publication US20250346585A1 (Alexion Pharmaceuticals, Inc., priority 2022, published 2025).
